Experimental data as given in patent US9303042B2, “Triazolothienopyrimidine compound inhibitors of urea transporters and methods of using inhibitors” (The Regents of the University of California, priority 2012, dated 2016).
Where two headings read alike, the source gives them in different places.

Experiments:
Assay type in all cases: cell-based
UT-B = biological target: T1, UT-B (Mus musculus, UniProt Q8VHL0); test: Erythrocyte lysis assay of UT-B inhibition; design: Screening was performed using mouse erythrocytes, which strongly express UT-B; endogenous in cells; host or cells: erythrocytes in whole blood of wild-type CD1 mice; conditions: read-out: IC50
T1 sequence (Q8VHL0 1-384): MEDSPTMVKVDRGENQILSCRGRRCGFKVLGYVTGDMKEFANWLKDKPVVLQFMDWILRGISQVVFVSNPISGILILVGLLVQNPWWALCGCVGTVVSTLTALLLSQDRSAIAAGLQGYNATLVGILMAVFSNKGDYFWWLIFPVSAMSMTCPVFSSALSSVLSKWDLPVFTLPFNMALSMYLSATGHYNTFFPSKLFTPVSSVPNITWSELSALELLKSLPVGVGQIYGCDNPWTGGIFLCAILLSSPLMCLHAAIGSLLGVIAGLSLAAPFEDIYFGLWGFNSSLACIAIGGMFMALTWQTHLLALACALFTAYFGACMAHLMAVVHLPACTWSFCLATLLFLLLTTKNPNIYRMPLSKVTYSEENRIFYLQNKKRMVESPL
How it was run: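 Mouse erythrocytes (expressing UT-B and AQP1) subjected to an outward acetamide gradient; UT-B inhibition blocks acetamide efflux, causing swelling and lysis. Lysis quantified by absorbance at 710 nm within 5 min of hypo-osmolar shock.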

CFTR = biological target: T2, CFTR (Homo sapiens, UniProt P13569); test: CFTR chloride conductance by short-circuit current; conditions: 10 μM, forskolin-activated
T2 construct: expressed in transfected cells
T2 sequence (P13569 whole entry): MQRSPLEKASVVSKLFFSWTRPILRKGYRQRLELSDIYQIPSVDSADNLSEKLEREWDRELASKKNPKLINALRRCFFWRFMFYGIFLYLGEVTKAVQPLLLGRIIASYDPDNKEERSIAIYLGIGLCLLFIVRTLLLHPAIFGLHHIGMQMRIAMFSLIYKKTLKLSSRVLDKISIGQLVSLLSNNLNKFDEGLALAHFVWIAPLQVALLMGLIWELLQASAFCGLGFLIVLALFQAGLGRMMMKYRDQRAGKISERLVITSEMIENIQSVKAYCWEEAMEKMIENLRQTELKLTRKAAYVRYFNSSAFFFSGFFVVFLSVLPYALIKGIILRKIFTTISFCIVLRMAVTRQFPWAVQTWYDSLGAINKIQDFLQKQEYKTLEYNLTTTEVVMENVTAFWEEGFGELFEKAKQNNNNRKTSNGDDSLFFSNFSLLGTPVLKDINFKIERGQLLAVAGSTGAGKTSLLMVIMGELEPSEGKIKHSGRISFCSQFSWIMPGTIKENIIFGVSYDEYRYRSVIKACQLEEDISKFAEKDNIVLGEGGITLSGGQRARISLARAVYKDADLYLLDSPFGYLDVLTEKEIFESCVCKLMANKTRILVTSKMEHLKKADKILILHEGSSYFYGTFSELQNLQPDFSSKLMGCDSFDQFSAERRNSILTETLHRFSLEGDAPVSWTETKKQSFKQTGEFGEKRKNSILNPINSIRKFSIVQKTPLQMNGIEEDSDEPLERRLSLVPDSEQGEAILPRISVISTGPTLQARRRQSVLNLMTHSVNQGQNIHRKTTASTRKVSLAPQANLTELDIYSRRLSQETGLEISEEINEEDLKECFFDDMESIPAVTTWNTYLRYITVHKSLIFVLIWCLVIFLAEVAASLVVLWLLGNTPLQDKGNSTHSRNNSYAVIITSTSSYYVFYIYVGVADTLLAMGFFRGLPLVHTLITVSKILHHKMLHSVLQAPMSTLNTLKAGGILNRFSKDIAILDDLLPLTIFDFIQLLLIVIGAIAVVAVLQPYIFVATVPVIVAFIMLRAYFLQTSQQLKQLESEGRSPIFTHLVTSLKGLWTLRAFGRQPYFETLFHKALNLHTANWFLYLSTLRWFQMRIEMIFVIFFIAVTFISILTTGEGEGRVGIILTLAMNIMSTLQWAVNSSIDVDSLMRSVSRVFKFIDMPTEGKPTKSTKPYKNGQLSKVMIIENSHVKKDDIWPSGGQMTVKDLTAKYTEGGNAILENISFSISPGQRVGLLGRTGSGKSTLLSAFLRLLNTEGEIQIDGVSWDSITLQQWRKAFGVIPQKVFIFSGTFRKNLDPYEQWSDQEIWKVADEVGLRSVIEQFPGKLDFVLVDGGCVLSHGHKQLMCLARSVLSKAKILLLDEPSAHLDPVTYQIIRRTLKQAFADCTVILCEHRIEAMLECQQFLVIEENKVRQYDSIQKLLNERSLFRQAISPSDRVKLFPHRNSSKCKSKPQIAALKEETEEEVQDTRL

mouse UT-B = biological target: T3, mouse UT-B (Mus musculus, UniProt Q8VHL0); test: Stopped-flow light scattering assay of erythrocyte urea transport, mouse erythrocytes
T3 construct: Screening was performed using mouse erythrocytes, which strongly express UT-B; endogenous in cells; host or cells: erythrocytes in whole blood of wild-type CD1 mice
T3 sequence (Q8VHL0 1-384): T1 sequence (Q8VHL0 1-384)
Procedure: Erythrocyte urea and water permeabilities were measured by stopped-flow light scattering using a Hi-Tech Sf-51 instrument (Wiltshire, UK). For measurement of urea permeability, dilutions of whole blood (mouse or human) in PBS (hematocrit ˜0.5%) were incubated with test compounds for 5 min and then subjected to a 100-mM inwardly directed urea gradient. After an initial osmotic shrinking phase, the kinetics of increasing cell volume caused by urea influx was measured as the time-course of 90° scattered light intensity at 530 nm, with increasing cell volume producing reduced scattered light intensity. Urea permeability and percentage inhibition were computed as described (see, e.g., Levin et al., FASEB J. supra, 2007)). In some experiments, different urea gradients (25-200 mM) were used, or inhibitor was added only to the erythrocyte-containing or urea-containing solutions. In some experiments an outwardly directed urea gradient was used in which erythrocytes were incubated for 30 min with PBS containing specified urea and mixed in the stopped-flow apparatus with PBS. In reversibility experiments, erythrocytes were incubated for 30 min with inhibitor, washed three times to remove inhibitor, and urea transport assayed. Osmotic water permeability was measured using a 100 mM gradient of sucrose.
UT-B inhibition potency was assayed quantitatively by stopped-flow light scattering from the kinetics of urea influx in response to an inwardly directed urea gradient (see Materials and Methods above). Rapid mixing of an erythrocyte suspension with an equal volume of a hyperosmolar, urea-containing solution to give a 100 mM inwardly directly urea gradient produced rapid cell shrinking due to osmotic water efflux, followed by cell swelling as a consequence of urea (and water) influx.
Measurements were done using a Hi-Tech Sf-51 instrument (Wiltshire, UK). Whole blood (mouse or human) was diluted in PBS (hematocrit approximately 0.5%), incubated with inhibitor for 5 min and then subjected to a 100-mM inwardly directed urea gradient. The kinetics of increasing cell volume caused by urea influx was measured as the time-course of 90° scattered light intensity at 530 nm. Urea permeability and percentage inhibition were computed as described (see, e.g., Levin et al., supra 2007).

Question: Which results are given for `CCc1ccc(S(=O)(=O)c2nnn3c2nc(NCc2cccs2)c2sccc23)cc1` [UTBinh-14, [3-(4-Ethyl-benzenesulfonyl)-thieno[2,3-e][1,2,3]triazolo[1,5-a]pyrimidin-5-yl]-thiophen-2-ylmethylamine]?
Answer: IC50 (UT-B; Table 2, synthesized inhibitors, red blood cell lysis assay (n = 3), single-site saturation model): 11 nM; IC50 (UT-B; erythrocyte lysis assay): 22 nM; inhibition of CFTR chloride conductance (CFTR): no significant inhibition; mechanism of UT-B inhibition vs urea (mouse UT-B; 0 and 50 nM, urea gradient varied): competitive; reduction of urea transport (mouse UT-B; 100 nM, mouse erythrocytes): approximately 75%; reversibility of UT-B inhibition (mouse UT-B; 100 nM, washout): reversible; inhibition at 1 µM (mouse UT-B; 1 μM): ~100%; urea transport in UT-B null erythrocytes (mouse UT-B; erythrocytes from UT-B knockout mice): did not inhibit; IC50 (mouse UT-B; erythrocytes pre-loaded with 100 mM urea, mixed with urea-free PBS, read-out: IC50 urea efflux): 26.7 nM; IC50 (mouse UT-B; urea influx, 100 mM inwardly directed urea gradient, read-out: IC50 for mouse UT-B): 25.1 nM
